Here are results for five molecules from patent EP3958980B1, “TARGETED NOVEL TRIAZOLOTHIADIAZINE DERIVATIVES FOR THE TREATMENT OF LUNG CANCER” (Anadolu Universitesi, priority 2020, dated 2021).

Each structure is given as a SMILES string. ≈ marks a conversion by molar mass, not a printed value. Where “and” joins values, the source holds several entries; their conditions need not be identical. Equal entries are not always repeated.

The test system of data set [1] is A549 cells. Nature of the data set: Annexin V FITC / PI flow cytometry (apoptosis). Particulars: IC50 concentrations; for Early apoptotic cells% / Late apoptotic cells% / Necrosis% / Viable cells%: 24 hours; for early and late apoptotic effects: sum of early and late apoptotic cells. The format is cell-based, human. On the procedure:
Briefly, after the cells were centrifuged for 4 minutes at 800 rpm, they were washed twice with 1 × PBS and were suspended in the 1 × Annexin-V binding solution at a concentration of 2-3 × 10^6 cell/mL and then 100 µL of the cell solution was transferred into tubes. Then, 5 µL of Annexin-V Fluorescein isothiocyanate (FITC) and 10 µL of propidium iodide (PI) solution were added to each tube, after incubation for 15 minutes at room temperature, 400 µL × Annexin-V binding solution was added to each tube and the cells were analyzed by flow cytometry (BD FACSCalibur™) within 1 hour. The early and late apoptotic cell percentages were calculated according to positive control.
On the technique in general: A flow cytometer gives signals particle by particle.

For data set [2], the system named is A549 cells. Nature of the data set: Cell cycle arrest by flow cytometry. The format is cell-based, human. The conditions noted are these: IC50 doses, 24 hours. On the procedure:
After the active compounds were determined with the MTT assay, their effects on the cell cycle in A549 cells depending on IC50 concentrations were carried out according to the manufacturer's recommendations. Briefly, the cells were suspended in a citrate buffer solution. The cells were centrifuged at 400 × g for 5 minutes at room temperature. The supernatant was removed and 250 µL solution A was added on the pellet. Following this, 200 µL solution B was added and it was kept at room temperature 10 minutes. Afterwards 200 µL solution C was added and it was kept at +4 °C for 10 minutes. The cells were analyzed with flow cytometry using BD Biosciences ModFit software.

Another data set concerns the target T1, COX-1 (Homo sapiens, UniProt P23219).
T1 construct: endogenous in cells; host or cells: A549
Nature of the data set: COX activity assay (colorimetric kit) on lysates of treated A549 cells, COX-1. The conditions noted are these: 24 hours incubation, IC50 concentrations. It counts as cell-based. On the procedure:
(§1) The intracellular COX, Akt and ROCK inhibitory effects of the active compounds determined with the MTT assay, were measured with the colorimetric assay according to the manufacturer's recommendations.
(§2) COX activity was carried out using Cayman COX activity assay kit in compliance with the manufacturer's recommendations. Briefly, 150 µL of each sample was kept in boiling water for 5 minutes and centrifuged at 8000 × g for 1 minute and it was used to obtain background values. […] 110 µL assay solution, 10 µL hemin and 40 µL sample, 10 µL DuP-697 or SC-560 was added to the inhibitor wells (DuP-697 inhibits COX-2 activity; while SC-560 inhibits COX-1 activity). The plate was shaked for a few seconds and it was left at 25 °C for 5 minutes. 20 µL colorimetric substrate was added to all wells. Moreover, a reaction was started by adding 20 µL arachidonic acid solution and the plate was shaked for a few seconds and it was left at 25 °C for 5 minutes. The absorbance values were read at 540 nm.

For the next data set, the target named is T2, COX-2 (Homo sapiens, UniProt P35354).
T2 construct: endogenous in cells; host or cells: A549
T2 sequence (P35354 18-604): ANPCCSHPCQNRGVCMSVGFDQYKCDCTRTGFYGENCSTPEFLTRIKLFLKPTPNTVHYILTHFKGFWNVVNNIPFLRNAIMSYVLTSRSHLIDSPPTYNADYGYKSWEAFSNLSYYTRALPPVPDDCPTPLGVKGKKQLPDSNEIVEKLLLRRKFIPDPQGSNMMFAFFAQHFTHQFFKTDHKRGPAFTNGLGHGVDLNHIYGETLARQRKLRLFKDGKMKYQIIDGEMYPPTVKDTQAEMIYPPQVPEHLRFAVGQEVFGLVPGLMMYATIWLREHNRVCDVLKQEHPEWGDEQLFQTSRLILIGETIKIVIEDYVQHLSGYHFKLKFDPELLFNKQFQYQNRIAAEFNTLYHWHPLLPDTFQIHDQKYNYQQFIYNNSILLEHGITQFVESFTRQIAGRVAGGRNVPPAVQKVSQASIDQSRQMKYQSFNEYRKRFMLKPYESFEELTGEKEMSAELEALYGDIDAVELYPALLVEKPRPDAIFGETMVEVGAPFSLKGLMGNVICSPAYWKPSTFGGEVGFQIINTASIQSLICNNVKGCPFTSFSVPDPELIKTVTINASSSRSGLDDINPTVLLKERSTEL
Nature of the data set: COX activity assay (colorimetric kit) on lysates of treated A549 cells, COX-2. The format is cell-based. Particulars: 24 hours incubation, IC50 concentrations. On the procedure: as §1, §2

Data set [3] relates to CCD-19Lu normal lung fibroblast cells. Nature of the data set: MTT assay, in vitro cytotoxic activity on CCD-19Lu. It counts as cell-based. The conditions noted are these: for IC50: Homo sapiens, CCD 19Lu, 24 hour incubation, read-out: IC50 values (µg/mL) CCDLul9 cell line. On the procedure:
The in vitro cytotoxic effects of the compounds were determined with the MTT assay. For this purpose, MTT test was performed using A549 and CCD-19Lu cell lines. After the cell lines used in the invention were centrifuged following taking them out from liquid nitrogen (-196 °C), the cells were cultured in a CO2 incubator comprising 5% CO2 at 37 °C in flasks containing 10% fetal bovine serum (FBS), where CCD-19Lu cells were cultured with Dulbecco's Modified Eagle's Medium (DMEM) and A549 cells were cultured with Roswell Park Memorial Institute (RPMI). The cells that reach the sufficient number for the assay, were seeded to 96 well plates such that 2×10^3 cells were placed in each well and at the same time, components at concentrations of 1-500 µg/mL were added to cells and they were incubated at 37 °C. At the end of the 24 hour incubation period, the MTT powder (5 mg/mL in 1 × phosphate buffered saline (PBS)) was added to each well (20 µL). After a 2-4 h period under the same conditions, the medium was removed from the plate and 100 µL of DMSO was added to each well to dissolve the dye and kept for 10 minutes. Then the plates were read at a wavelength of 540 nm using ELx808-IU Bio-Tek plate reader. The control cell viability which was not treated with the components was accepted to be 100% and the viability rates of the cells were expressed as %. […] According to the results obtained, the dose range was extended until the IC50 value was determined.
MTT assay is a frequently used method which measures the cytotoxic effects of the compounds on the cells by converting the yellow colored MTT stain into purple colored formazan crystals via the mitochondrial succinate dehydrogenase activity. In the cytotoxic activity tests of the compounds, A549 lung adenocarcinoma and CCDLu19 normal lung fibroblast cell lines were used.
Background: Formazan colour is commonly taken as a measure of viable cells.

T1 sequence (P23219 24-599): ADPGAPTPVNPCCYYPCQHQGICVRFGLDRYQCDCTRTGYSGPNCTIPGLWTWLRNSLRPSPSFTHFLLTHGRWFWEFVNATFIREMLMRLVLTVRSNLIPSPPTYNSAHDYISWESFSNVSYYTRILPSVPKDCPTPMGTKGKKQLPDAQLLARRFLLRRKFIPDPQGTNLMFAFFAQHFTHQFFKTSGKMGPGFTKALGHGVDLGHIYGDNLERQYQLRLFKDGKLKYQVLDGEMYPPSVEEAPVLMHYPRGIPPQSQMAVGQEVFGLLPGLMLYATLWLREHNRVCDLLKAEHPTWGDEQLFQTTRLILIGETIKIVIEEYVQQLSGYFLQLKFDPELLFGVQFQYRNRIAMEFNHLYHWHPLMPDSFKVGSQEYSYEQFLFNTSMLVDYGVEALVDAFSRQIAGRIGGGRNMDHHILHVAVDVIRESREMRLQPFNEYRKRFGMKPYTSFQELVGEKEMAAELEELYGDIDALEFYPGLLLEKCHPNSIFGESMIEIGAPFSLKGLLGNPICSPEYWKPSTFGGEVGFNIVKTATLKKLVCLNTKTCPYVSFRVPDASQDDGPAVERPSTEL

As for `N.N.[Cl][Pt][Cl]` [Cisplatin, reference compound], in the data set with A549 cells [1], the Early apoptotic cells% was 14.70%; the Late apoptotic cells% came to 30.10%; the Necrosis% was determined as 28.70%; the “early and late apoptotic effects” value is on record as 44.80%. In the data set on A549 cells [2], this molecule displayed a G0/G1% of 45.92%, a G2/M% of 4.00% and a S% of 50.07%. For the same molecule, on COX-1, the “COX-1 Inhibition%” value amounted to 24.65% and the “COX-1 activity (U/mL)” value was found to be 3.08 U/mL. In addition, on COX-2, the “COX-2 Inhibition%” value was determined as 43.46% and the “COX-2 activity (U/mL)” value amounted to 2.38 U/mL.

`CS(=O)(=O)c1ccc(C2=Nn3c(CCc4ccc5c(c4)OCO5)nnc3SC2)cc1` [Compound 9]: in data set [3], the “cytotoxicity against CCDLu19 cells (in words)” value (shortened to “cytotoxicity”) is given as “non-cytotoxic” and the IC50 came to 102 ± 10.4 µg/mL (≈ 230 µM). In the data set on A549 cells [1], the Early apoptotic cells% was determined as 5.00%, the Late apoptotic cells% came out at 16.20%, the Necrosis% was determined as 6.30% and the Viable cells% is 72.50%. Besides, the “early and late apoptotic effects” value in the data set on A549 cells [1] came to 21.20%. In the data set with A549 cells [2], the G0/G1% was 53.29%, the G2/M% was found to be 9.66% and the S% is on record as 37.04%. On COX-1, the “COX-1 Inhibition%” value was found to be 35.21% and the “COX-1 activity (U/mL)” value is reported as 3.41 U/mL. Moreover, on COX-2, the “COX-2 Inhibition%” value is reported as 32.66% and the “COX-2 activity (U/mL)” value stood at 3.60 U/mL.

For the molecule `FC(F)(F)c1ccc(C2=Nn3c(CCc4ccc5c(c4)OCO5)nnc3SC2)cc1` [Compound 11, 3-[2-(1,3-Benzodioxole-5-yl)ethyl]-6-(4-trifluoromethylphenyl)-7H-[1,2,4]triazolo [3,4-b][1,3,4]thiadiazine], in data set [3], the “cytotoxicity” value was “non-cytotoxic” and the IC50 came out at 113 ± 5.77 µg/mL (≈ 262 µM). In the data set on A549 cells [1], the Early apoptotic cells% is recorded as 2.90%, the Late apoptotic cells% came to 9.90%, the Necrosis% amounted to 14.80% and the Viable cells% is recorded as 72.30%. In addition, the “early and late apoptotic effects” value in the data set on A549 cells [1] came out at 12.80%. In addition, in the data set with A549 cells [2], the G0/G1% is 57.29%, the G2/M% was 8.15% and the S% was determined as 34.57%. Besides, at COX-1, the “COX-1 Inhibition%” value is 54.18% and the “COX-1 activity (U/mL)” value came to 1.88 U/mL. In addition, on COX-2, the “COX-2 activity (U/mL)” value worked out at 1.46 U/mL.

For `Fc1cccc(C2=Nn3c(CCc4ccc5c(c4)OCO5)nnc3SC2)c1` [Compound 12, 3-[2-(1,3-Benzodioxole-5-yl)ethyl]-6-(3-fluorophenyl)-7H-[1,2,4]triazolo [3,4-b] [1,3,4]thiadiazine], in data set [3], the “cytotoxicity” value is “non-cytotoxic” and the IC50 is 34.3 ± 2.08 µg/mL (≈ 89.8 µM). Moreover, in the data set on A549 cells [1], the Early apoptotic cells% turned out to be 4.80%, the Late apoptotic cells% came to 29.70%, the Necrosis% came to 40.80% and the Viable cells% is on record as 24.70%. The “early and late apoptotic effects” value with A549 cells [1] was 34.50% and 25.90%. Moreover, in the data set with A549 cells [2], the G0/G1% is given as 54.20%, the G2/M% is on record as 6.52% and the S% is reported as 39.28%. Besides, the “COX-1 activity (U/mL)” value on COX-1 turned out to be 2.51 U/mL. Also, at COX-2, the “COX-2 Inhibition%” value was 53.52% and the “COX-2 activity (U/mL)” value amounted to 1.95 U/mL.

As to `c1ccc(-c2ccc(C3=Nn4c(CCc5ccc6c(c5)OCO6)nnc4SC3)cc2)cc1` [Compound 14, 3-[2-(1,3-Benzodioxole-5-yl)ethyl]-6-(biphenyl-4-yl)-7H-[1,2,4]triazolo[3,4-b] [1,3,4]thiadiazine], in data set [3], the “cytotoxicity” value is “non-cytotoxic” and the IC50 is 65 ± 5 µg/mL (≈ 148 µM). Further, in the data set on A549 cells [1], the Early apoptotic cells% came to 4.20%, the Late apoptotic cells% was determined as 21.70%, the Necrosis% is listed as 34.60% and the Viable cells% was determined as 39.50%. In the data set with A549 cells [1], the “early and late apoptotic effects” value is 25.90% and 34.50%. In the data set on A549 cells [2], the G0/G1% is 54.92%, the G2/M% is listed as 7.91% and the S% turned out to be 37.17%. Besides, at COX-1, the “COX-1 Inhibition%” value came out at 2.19% and the “COX-1 activity (U/mL)” value amounted to 4.15 U/mL. At COX-2, the “COX-2 Inhibition%” value was 15.17% and 15.70%; the “COX-2 activity (U/mL)” value was 3.56 U/mL.
